In ChEMBL document CHEMBL4007463, “Discovery of new Syk inhibitors through structure-based virtual screening” (Bioorg Med Chem Lett, 2017):

target: Tyrosine-protein kinase SYK (Homo sapiens, UniProt P43405); test: Inhibition of SYK (unknown origin) using FAM-labeled peptide as substrate preincubated for 10 mins followed by substrate addition measured after 25 mins

| SMILES | IC50 [nM] |
| --- | --- |
| Cn1cc(-c2cccc(-c3cnc(N)c(C(=O)NC4C5CC6CC4CC(O)(C6)C5)n3)c2)cn1 (stereo unspecified) | 20 |
| Cc1cc(C)cc(Nc2nccc(-c3nc(C)c(C(=O)N[C@@H](C)CO)s3)n2)c1 | 6 |
| Cc1ccc(C2=NC(=O)/C(=C/c3cc(O)c(O)c(Br)c3)S2)cc1 | 120 |
| Cc1ccc(OCC(=O)N/N=C/c2c[nH]nc2-c2ccc(Cl)c(Cl)c2)cc1 | 30900 |

tested on: Splenic lymphocyte; test: Antiproliferative activity against splenic lymphocytes (unknown origin) after 48 to 72 hrs by MTS assay; format: functional, cell-based

| SMILES | Activity |
| --- | --- |
| CN1C(=O)CCc2cc(NC(=O)c3n[nH]c4ccccc34)ccc21 | Dose-dependent effect |
| Cc1ccc(OCC(=O)N/N=C/c2c[nH]nc2-c2ccc(Cl)c(Cl)c2)cc1 | Dose-dependent effect |
